Legend:
Experiment in all cases: relative viability (nuclei count vs DMSO), 5 days (fraction); higher = more cells survive
Tanzisertib + Decitabine = compound: O[C@H]1CC[C@H](Nc2ncc3nc(Nc4c(F)cc(F)cc4F)n([C@H]4CCOC4)c3n2)CC1 [Tanzisertib] + Nc1ncn([C@H]2C[C@H](O)[C@@H](CO)O2)c(=O)n1 [Decitabine] (partner 2 µM)
In short: (§1)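 After 5 days of treatment, lung cancer cells in 1536-well plates were fixed and stained in a single step (final 0.05% Triton X-100, 1% formaldehyde, 1 ug/ml Hoechst) and their nuclei counted on 4× images. Treatment had been applied by pin tool the day after seeding as one drug alone or as a fixed anchor-drug dose with five library-drug doses (not always all listed) in √10 steps. Relative viability is the nuclei count of treated wells divided by that of vehicle wells, and values are medians of duplicate plates.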

[1] = compound: C[C@@H](N)c1ccc(C(=O)Nc2ccnc3[nH]ccc23)cc1 + Cc1cc(Nc2cc(N3CCN(C)CC3)nc(Sc3ccc(NC(=O)C4CC4)cc3)n2)n[nH]1 [Tozasertib] (partner 0.1 µM)
In short: as §1

[2] = compound: O[C@H]1CC[C@H](Nc2ncc3nc(Nc4c(F)cc(F)cc4F)n([C@H]4CCOC4)c3n2)CC1 [Tanzisertib] + CC(=O)c1c(C)c2cnc(Nc3ccc(N4CCNCC4)cn3)nc2n(C2CCCC2)c1=O [Palbociclib] (partner 0.5 µM)
In short: as §1

Tanzisertib + Alpelisib = compound: O[C@H]1CC[C@H](Nc2ncc3nc(Nc4c(F)cc(F)cc4F)n([C@H]4CCOC4)c3n2)CC1 [Tanzisertib] + Cc1nc(NC(=O)N2CCC[C@H]2C(N)=O)sc1-c1ccnc(C(C)(C)C(F)(F)F)c1 [Alpelisib] (partner 2 µM)
In short: as §1

Cell Line	relative viability (Tanzisertib + Decitabine; first compound 0.08 µM)	relative viability (Tanzisertib + Decitabine; first compound 0.253 µM)	relative viability (Tanzisertib + Decitabine; first compound 0.8 µM)	relative viability (Tanzisertib + Decitabine; first compound 2.53 µM)	relative viability (Tanzisertib + Decitabine; first compound 8 µM)	relative viability ([1]; first compound 0.04 µM)	relative viability ([1]; first compound 0.1265 µM)	relative viability ([1]; first compound 0.4 µM)	relative viability ([1]; first compound 1.265 µM)	relative viability ([1]; first compound 4 µM)	relative viability ([2]; first compound 0.08 µM)	relative viability ([2]; first compound 0.253 µM)	relative viability ([2]; first compound 0.8 µM)	relative viability ([2]; first compound 2.53 µM)	relative viability ([2]; first compound 8 µM)	relative viability (Tanzisertib + Alpelisib; first compound 0.08 µM)	relative viability (Tanzisertib + Alpelisib; first compound 0.253 µM)	relative viability (Tanzisertib + Alpelisib; first compound 0.8 µM)	relative viability (Tanzisertib + Alpelisib; first compound 2.53 µM)	relative viability (Tanzisertib + Alpelisib; first compound 8 µM)
NCI-H2342	0.78	0.778	0.694	0.781	0.815	0.496	0.382	0.493	0.495	0.525	0.539	0.542	0.52	0.497	0.582	–	–	–	–	–
NCI-H1792	0.668	0.539	0.487	0.569	0.566	–	–	–	–	–	0.7	0.66	0.654	0.64	0.573	0.677	0.647	0.737	0.665	0.671
NCI-H596	0.986	1.08	0.982	1	0.863	0.934	0.839	0.978	–	0.843	–	–	–	–	–	0.539	0.448	0.421	0.407	0.471
NCI-H1563	–	–	–	–	–	–	–	–	–	–	–	–	–	–	–	0.92	0.935	0.875	0.862	0.977
NCI-H522	0.807	0.699	0.618	0.803	0.636	0.591	0.476	0.512	0.509	0.55	1.05	0.984	0.959	1.13	0.899	–	–	–	–	–
SW 900	–	0.485	0.412	0.328	0.438	0.551	0.561	0.551	0.663	0.714	–	0.522	0.557	0.56	0.454	–	–	–	–	–
CAL-12T	–	–	–	–	–	0.366	0.392	0.413	0.443	0.283	0.486	0.447	0.539	0.422	0.279	1.32	1.14	1.09	1.4	1.17
EBC-1	–	–	–	–	–	–	–	–	–	–	–	–	–	–	–	0.999	0.789	0.829	0.792	0.697
NCI-H1650	0.408	0.452	0.393	0.384	0.453	0.386	0.483	0.394	0.291	0.37	0.297	0.326	0.404	0.351	0.314	–	–	–	–	–
IA-LM	–	–	–	–	–	–	–	–	–	–	–	–	–	–	–	0.908	0.802	0.83	0.85	0.956
NCI-H1703	–	–	–	–	–	–	–	–	–	–	–	–	–	–	–	0.409	0.251	0.328	0.309	0.303
NCI-H2228	–	–	–	–	–	0.252	0.315	0.267	0.299	0.228	1.12	0.818	0.684	0.741	0.655	0.934	0.67	0.806	0.737	0.539
